Measurements: PubChem BioAssay AID256 (DTP/NCI, 2004)
“And” between values parts separate entries of the source, which are not always exact repeats. Equal entries are not always repeated. Inconclusive results and toxic doses are left out.

Tested on: CD2F1 mice, L1210 leukemia ip, survival T/C
Assay: NCI In Vivo Anticancer Drug Screen. Data for tumor model L1210 Leukemia (intraperitoneal) in CD2F1 (CDF1) mice
Settings: endpoint: mean survival time, higher = longer survival
Outline: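 Compound-dosed mice with transplantable tumor versus matched vehicle controls; endpoint ratio T/C reported.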

[1] = dose: 100.0 mg/kg/injection, schedule: Q01DX001 (ip), vehicle: saline with Tween-80
[2] = dose: 400.0 mg/kg/injection, schedule: Q01DX001 (ip), vehicle: saline with Tween-80
[3] = dose: 200.0 mg/kg/injection, schedule: Q01DX001 (ip), vehicle: saline with Tween-80

In the case of `O=C(NNC(=O)c1c(F)c(F)c(F)c(F)c1F)c1c(F)c(F)c(F)c(F)c1F`, the T/C (dose: 100.0 mg/kg/injection, schedule: Q01DX009 (ip), vehicle: saline with Tween-80) is reported as 97 % of control and the T/C (dose: 200.0 mg/kg/injection, schedule: Q01DX009 (ip), vehicle: saline with Tween-80) is reported as 97 % of control.
In the case of `Cn1c(=O)c2c(ncn2CCSS(=O)(=O)O)n(C)c1=O`, the T/C (dose: 12.5 mg/kg/injection, schedule: Q01DX005 (ip), vehicle: water) is reported as 100 % of control, the T/C (dose: 25.0 mg/kg/injection, schedule: Q01DX005 (ip), vehicle: water) is reported as 94 % of control and the T/C (dose: 50.0 mg/kg/injection, schedule: Q01DX005 (ip), vehicle: water) is reported as 102 % of control. The T/C (dose: 100.0 mg/kg/injection, schedule: Q01DX005 (ip), vehicle: water) was 100 % of control and the T/C (dose: 200.0 mg/kg/injection, schedule: Q01DX005 (ip), vehicle: water) was 98 % of control.
With `Cc1ccc(-c2csc(/N=C/c3ccccc3O)n2)cc1.Cc1ccc(-c2csc(/N=C/c3ccccc3O)n2)cc1.[Cu]` the T/C (dose: 25.0 mg/kg/injection, schedule: Q01DX001 (ip), vehicle: saline) was 91 % of control, the T/C (dose: 50.0 mg/kg/injection, schedule: Q01DX001 (ip), vehicle: saline) was 96 % of control and the T/C [1] was 86 % of control. The T/C (dose: 100.0 mg/kg/injection, schedule: Q01DX001 (ip), vehicle: saline) was 87 % of control and the T/C [2] was 93 % of control.
`O=NN(CCCl)C(=O)Nc1cc(NC(=O)N(CCCl)N=O)cc(C(=O)O)c1` was tested, and the T/C (dose: 10.0 mg/kg/injection, schedule: Q04DX003 (ip), vehicle: saline with Tween-80) was 186 % of control and the T/C (dose: 20.0 mg/kg/injection, schedule: Q04DX003 (ip), vehicle: saline with Tween-80) was 212 % of control.
In the case of `CCC(=O)C(C)N(C)C1CCCCC1` (stereo not drawn), the T/C (dose: 100.0 mg/kg/injection, schedule: Q04DX003 (ip), vehicle: saline) is reported as 100 % of control, the T/C (dose: 200.0 mg/kg/injection, schedule: Q04DX003 (ip), vehicle: saline) is reported as 102 % of control and the T/C (dose: 400.0 mg/kg/injection, schedule: Q04DX003 (ip), vehicle: saline) is reported as 96 % of control.
For `NC(=S)N/N=C\c1nccc2c(C(F)(F)F)cccc12`, the T/C (dose: 100.0 mg/kg/injection, schedule: Q04DX002 (ip), vehicle: saline with Tween-80) was 124 % of control and the T/C (dose: 200.0 mg/kg/injection, schedule: Q04DX002 (ip), vehicle: saline with Tween-80) was 89 % of control.
`COc1ccc(/C=C2\Oc3cc(O)ccc3C2=O)cc1O` was tested, and the T/C [1] was 96 % of control, the T/C [3] was 94 % of control and the T/C [2] was 91 % of control.
`COc1cc2ccc3cnccc3c2cc1OC` was tested, and the T/C (dose: 12.5 mg/kg/injection, schedule: Q01DX009 (ip), vehicle: Klucel (hydroxypropylcellulose) (HPC)) was 100 % of control, the T/C (dose: 25.0 mg/kg/injection, schedule: Q01DX009 (ip), vehicle: Klucel (hydroxypropylcellulose) (HPC)) was 92 % of control and the T/C (dose: 50.0 mg/kg/injection, schedule: Q01DX009 (ip), vehicle: Klucel (hydroxypropylcellulose) (HPC)) was 94 % of control. The T/C (dose: 100.0 mg/kg/injection, schedule: Q01DX009 (ip), vehicle: Klucel (hydroxypropylcellulose) (HPC)) was 94 % of control and the T/C (dose: 200.0 mg/kg/injection, schedule: Q01DX009 (ip), vehicle: Klucel (hydroxypropylcellulose) (HPC)) was 100 % of control.
In the case of `CCCCNc1nc2c(N)ncnc2n1C1OC(CO)C(O)C1O` (stereo not drawn), the T/C (dose: 12.5 mg/kg/injection, schedule: Q01DX005 (ip), vehicle: distilled water + Tween-80) is reported as 100 % of control and 97 % of control, the T/C (dose: 25.0 mg/kg/injection, schedule: Q01DX005 (ip), vehicle: distilled water + Tween-80) is reported as 102 % of control and 100 % of control and the T/C (dose: 50.0 mg/kg/injection, schedule: Q01DX005 (ip), vehicle: distilled water + Tween-80) is reported as 100 % of control. For the same compound, the T/C (dose: 100.0 mg/kg/injection, schedule: Q01DX005 (ip), vehicle: distilled water + Tween-80) was 100 % of control and 102 % of control and the T/C (dose: 200.0 mg/kg/injection, schedule: Q01DX005 (ip), vehicle: distilled water + Tween-80) was 100 % of control and 103 % of control.
With `COc1ccc(Cl)c2c1C(=O)C(=O)N2` the T/C (dose: 100.0 mg/kg/injection, schedule: Q04DX003 (ip), vehicle: saline with Tween-80) was 91 % of control, the T/C (dose: 200.0 mg/kg/injection, schedule: Q04DX003 (ip), vehicle: saline with Tween-80) was 98 % of control and the T/C (dose: 400.0 mg/kg/injection, schedule: Q04DX003 (ip), vehicle: saline with Tween-80) was 98 % of control.
In the case of `c1cc2c3c(cccc3c1)C1C2C2c3cccc4cccc(c34)C12` (stereo not drawn), the T/C [1] is reported as 93 % of control, the T/C [3] is reported as 97 % of control and the T/C [2] is reported as 100 % of control.
